In ChEMBL document CHEMBL5661955, “ASAP - In vitro cytotoxicity” (2024):
Values joined by “and” are separate entries in the source; they are usually repeats but may differ in a detail not shown here. Identical values can stand only once.

Experiments:
[1] = Functional metabolic assay to measure dose dependent changes in cell viability from drug treatment in Vero E6/TMPRSS2 cells (cotreated with P-gp inhibitor, Elacridar). […] Cytotoxicity is reported via measuring absorbance and analysis of MTT/MTS assays in uninfected cells. The assay has been performed by Icahn School of Medicine at Mount Sinai.; type: toxicity, cell-based, VeroE6/TMPRSS2; settings: chlorocebus sabaeus, p-gp concentration 2 uM
[2] = Functional assay to measure dose dependent changes in cell viability from drug treatment in Vero E6 miRFP670 cells (cotreated with P-gp inhibitor, CP100356) that are infected with Dengue virus type 2 New Guinea C. […] Cytotoxicity is reported via via analysis of DAPI count using high-content imager. The assay has been performed by KU Leuven.; type: toxicity, cell-based, Vero C1008; settings: chlorocebus sabaeus, p-gp concentration 500 nM
[3] = Functional CPE-based assay to measure dose dependent changes in cell viability from drug treatment in Vero E6 miRFP670 cells (cotreated with P-gp inhibitor, CP100356). Cells are treated with antiviral candidates that have been serially diluted. Cytotoxicity is reported via analysis of MTS assays in uninfected cells. The assay has been performed by KU Leuven.; type: toxicity, Vero C1008; settings: chlorocebus sabaeus, p-gp concentration 500 nM
[4] = Vero E6/TMPRSS2 cells, with Elacridar (P-gp inhibitor, concentration not stated)
[5] = with CP100356 (P-gp inhibitor, concentration not stated)
[6] = Vero E6 miRFP670 cells, with CP100356 (P-gp inhibitor, concentration not stated)

SMILES	CC10 ([1]; veroe6/tmprss2)	CC50 [1, 4] [µM]	CC50 [2, 5] [µM]	CC50 [3, 6] [µM]	also measured
COc1ccc(CCNc2nc(N3CCc4cc(OC)c(OC)cc4C3)c3cc(OC)c(OC)cc3n2)cc1OC	< 0.005 µM				
N#Cc1cc(Cl)cc(C(=O)Nc2ccc3c(c2)CNC3)c1	> 50 µM	> 50			
Cc1ccc(S(=O)(=O)CNC(=O)[C@H](Nc2ccc3c(c2)CNC3)c2cc(Cl)cc3[nH]ncc23)cc1	> 50 µM	> 50			
O=C(Nc1ccc2c(c1)CNC2)c1cc(Cl)ccc1SC1CCCC1	41.64 µM	> 50			
N#Cc1cc(Cl)cc([C@H](C#N)Nc2ccc3c(c2)CNC3)c1	> 50 µM	> 50			
O=C(Nc1ccc2c(c1)CNC2)c1cc(Br)cc2[nH]c(C3CCOCC3)nc12	3.442 µM	27.8			
CCc1cc(Cl)cc(C(=O)Nc2ccc3c(c2)CNC3)c1	10.908 µM	> 50			
Cc1ccc2cc(Cl)cc(C(=O)Nc3ccc4c(c3)CNC4)c2n1	2.835 µM	31.3			
CNC(=O)[C@H](Nc1ccc2c(c1)CNC2)c1cc(Cl)cc2[nH]ncc12			5.53	> 50	
O=C(Nc1cnc2c(c1)CNCC2)c1cc(Cl)cc2[nH]ncc12	> 50 µM	> 50			
O=C(Nc1ccc2c(n1)CNC2)c1cc(Cl)cc2[nH]ncc12			> 50	> 50	
CC(=O)Nc1cc(Br)cc(C(=O)Nc2ccc3c(c2)CNC3)c1			0.561	> 50	
O=C(NCC1CCOCC1)[C@H](Nc1ccc2c(c1)CNC2)c1cc(Cl)cc2[nH]ncc12	> 50 µM	> 50			
CCOC(=O)[C@H]1[C@H](c2cc(Cl)cc(NC(=O)OCc3ccccc3)c2)[C@H]1c1cccc(-c2nnn[nH]2)c1	> 50 µM	> 50			
CC(C)NC(=O)[C@H](Nc1ccc2c(c1)CNC2)c1cc(Cl)cc2[nH]c(-c3ccccc3)nc12					CC50 ([2]; vero c1008): 23.2 µM and 7.47 µM and 13.6 µM; CC50 ([3]; vero c1008): 5.66 µM and 9.23 µM and 13.7 µM
O=C(Nc1ccc2c(c1)CNC2)c1cc(F)cc2[nH]c(-c3cnc(C4CC4)o3)nc12			1.86		CC50 ([2]; vero c1008): 2.55 µM; CC50 ([3]; vero c1008): 3.86 µM and 1.41 µM
O=C(Nc1ccc2c(c1)CNC2)c1cccc2[nH]c(C(F)(F)F)cc12			> 50	47.3	
O=C(Nc1ccc2c(c1)CNC2)c1cc(Cl)cc2cn[nH]c12			5	> 50	
O=C(Nc1ccc2c(c1)CNC2)c1cc(Cl)cc2[nH]c(-c3ccnn3C3CC3)nc12			11.7	1.78	

SMILES	CC10 ([1]; veroe6/tmprss2)	CC50 [1, 4] [µM]	CC50 [2, 5] [µM]	CC50 [3, 6] [µM]	also measured
N#C[C@H](Nc1cccc(-c2nn[nH]n2)c1)c1cc(Cl)cc(NC(=O)OCc2ccccc2)c1	> 50 µM	> 50			
O=C(Nc1ccc2c(c1)CNC2)c1cc(Br)cc2[nH]c(=O)[nH]c12			4.79	> 50	
CNC(=O)[C@H](Nc1ccc2c(c1)CNC2)c1cc(Cl)cc2[nH]c(-c3ccccc3)nc12			> 50		CC50 ([3]; vero c1008): 9.01 µM and 21.4 µM
O=C(Nc1ccc2c(c1)CNC2)c1cc(Cl)cc2[nH]c(-c3ccc(F)cc3O)nc12			1.64	2.19	
C=CC[C@H](Nc1cccc(-c2nn[nH]n2)c1)c1cc(Cl)cc2[nH]ncc12	> 5 µM	> 5			
NCc1cccc(NC(=O)c2cc(Cl)cc(CN)c2)c1					CC50 ([1]; veroe6/tmprss2): > 50 µM
CC[C@H](Cc1nnn[nH]1)c1ccc(NC(=O)c2cc(Cl)cc(-n3cccc3)c2)cc1	> 50 µM	> 50			
O=S(=O)(Nc1cccc(-c2nnn[nH]2)c1)c1cc(Cl)cc(-c2ccccc2)c1	> 50 µM	> 50			
O=C(NCC(F)F)[C@H](Nc1ccc2c(c1)CNC2)c1cc(F)cc2[nH]ccc12			31.1	> 50	
Cn1cc2c(C(=O)Nc3ccc4c(c3)CNC4)cc(F)cc2n1			> 50	> 50	
c1ccc2c(CN3CCC(c4cscn4)CC3)c[nH]c2c1					CC50 ([1]; veroe6/tmprss2): > 50 µM
C=CC[C@H]1NCc2cc(NC(=O)c3cc(Cl)cc4[nH]ncc34)ccc21			3.12	11.8	
Cc1nc2c(C(=O)Nc3ccc4c(c3)CNC4)cc(Cl)cc2[nH]1			6.02	4.77	
c1ccc(-c2csc(C3CCN(Cc4c[nH]c5ccccc45)CC3)n2)cc1	0.299 µM and 0.162 µM		> 10		CC50 ([1]; veroe6/tmprss2): > 10 µM and 20.1 µM
CC1(C)NCc2cc(NC(=O)c3cc(F)cc4[nH]ncc34)ccc21				> 50	
O=C(Nc1cc(Cl)cc(-c2ccc3[nH]c(C(=O)O)cc3c2)c1)OCc1ccccc1			27.1	25.2	CC50 ([2]; vero c1008): 14.3 µM
O=C(NCCC1CC1)[C@H](Nc1ccc2c(c1)CNC2)c1cc(Cl)cc(C2CC2)c1			16.7	11.8	
CCOc1cccc(-c2ccc(S(=O)(=O)Nc3ccc(Cl)cc3C(=O)O)cc2)c1					CC50 ([1]; veroe6/tmprss2): > 50 µM
